Test results published in patent publication US20100069450A1, “SALT OF 3-BENZYL-2-METHYL-2,3,3A,4,5,6,7, 7A- OCTAHYDROBENZO[D]ISOXAZOL-4-ONE” (ABIOGEN PHARMA S.P.A, priority 2006, published 2010).

Legend:
female CD-1 mice = assay: Acute oral toxicity; format: in vivo; conditions: female CD-1 mice, oral gavage 2000 mg/kg bw
Method: Acute oral toxicity of salts hydrochloride and fumarate of BTG-1640 was evaluated.
The two salts were dispersed in an aqueous suspension, thus obtaining two formulations, each one orally administered through oesophageous gavage at dose of 2000 mg/kg bw (expressed as free base of BTG 1640) to one of two groups comprising three female CD-1 mice per group.
The observation lasted 14 days.

[1] = Absorption kinetic: plasma concentration of BTG 1640 after oral gavage; format: in vivo, rats Sprague Dawley; conditions: rats, oral gavage 10 mg/kg (as free base)
Method: Absorption extent and rate of molecule BTG 1640 in its forms of fumarate and hydrochloride salts were evaluated.
With this intent, the two salts were dispersed in an aqueous suspension of arabic gum at 5% thus obtaining two formulations, each one orally administered through oesophageous gavage at dose of 10 mg/kg (expressed as free base of BTG 1640) to five rats Sprague Dawley.
Plasma concentration of molecule BTG 1640 was determined at different time points.

[2] = Stability test of BTG 1640 salts: purity under preservation conditions; format: physicochemical
Method: Samples of 100 mg each of BTG 1640 hydrochloride were subjected to the following preservation conditions:
The purities were then analyzed periodically, initially every three months, in order to underline possible variations.
Samples of 100 mg each of BTG 1640 fumarate prepared according to example 1C were subjected to the following preservation conditions:
Quarterly and in an overall period of nine months its purity was then analyzed in order to underline possible variations. The results in the following Table 3 were obtained:
As comparison other salts of BTG 1640 were prepared, and exactly: • BTG 1640 methanesulphonate • BTG 1640 maleate • BTG 1640 succinate following the procedure indicated in example 1 and substituting methanesolphonic, maleic and succinic acids for fumaric acid.
The stabilities were then evaluated by subjecting samples of 100 mg of each salt to the following analogous preservation conditions:
Quarterly and in an overall period of nine months their purity was then analyzed in order to underline possible variations.
The obtained results, together with those obtained in Example 2 for hydrochloride, in Example 3 for fumarate in order to make easier the comparison, were in Table 5 and represented in FIGS. 5-8.

[3] = Stability test of BTG 1640 salts: evaluation of total impurities; format: physicochemical
Method: Contemporaneously, the impurity analysis in the conditions a)-d) of T/% RH were carried out.
As a confirmation of such evidence, a test for the evaluation of the impurity percentage of the sample subjected to the same conditions a)-d) of T/% RH was parallely carried out. The experimental values in Table 4 were obtained.

[4] = T = 25° C., humidity 60% RH, time 0
[5] = T = 25° C., humidity 60% RH, time 3 (months)
[6] = T = 25° C., humidity 60% RH, time 6 (months)
[7] = T = 25° C., humidity 60% RH, time 9 (months)
[8] = T = 25° C., humidity 60% RH, time 12 (months)
[9] = T = 25° C., humidity 60% RH, time 18 (months)
[10] = T = 25° C., humidity 60% RH, time 24 (months)
[11] = T = 25° C., humidity 60% RH, time 36 (months)
[12] = T = 30° C., humidity 65% RH, time 0
[13] = T = 30° C., humidity 65% RH, time 3 (months)
[14] = T = 30° C., humidity 65% RH, time 6 (months)
[15] = T = 30° C., humidity 65% RH, time 9 (months)
[16] = T = 30° C., humidity 65% RH, time 12 (months)
[17] = T = 40° C., humidity 75% RH, time 0
[18] = T = 40° C., humidity 75% RH, time 3 (months)
[19] = T = 40° C., humidity 75% RH, time 6 (months)

## CN1OC2CCCC(=O)C2C1Cc1ccccc1.Cl (stereo not shown) [BTG 1640 hydrochloride]
Female CD-1 mice
  Clinical signs: Lethargy, ataxia, aggressiveness and vocalization
  Histopathological examination of kidneys: small foci of acute tubular necrosis in the cortex, balloon degeneration of the epithelium and dilatation of convoluted tubules
Female CD-1 mice; 14 days observation
  Lethality: lethal in two animals out of three
[1]; 2 minutes
  BTG 1640 free base concentration in plasma: 0.7402 µg/mL
[1]; 5 minutes
  BTG 1640 free base concentration in plasma: 1.4242 µg/mL
[1]; 30 minutes
  BTG 1640 free base concentration in plasma: 0.2354 µg/mL
[1]; 90 minutes
  BTG 1640 free base concentration in plasma: 0.1184 µg/mL
[1]; 300 minutes
  BTG 1640 free base concentration in plasma: 0 µg/mL
[2]; T = 5° C., time 0
  Purity %: 99.3%
[2]; T = 5° C., time 3 (months)
  Purity %: 100.1%
[2]; T = 5° C., time 6 (months)
  Purity %: 100.3%
[2]; T = 5° C., time 9 (months)
  Purity %: 99.6%
[2]; T = 5° C., time 12 (months)
  Purity %: 99.6%
[2]; T = 5° C., time 18 (months)
  Purity %: 100.8%
[2]; T = 5° C., time 24 (months)
  Purity %: 98.8%
[2]; T = 5° C., time 36 (months)
  Purity %: 99.8%
[2]; [4]
  Purity %: 99.7%
[2]; [5]
  Purity %: 100.9%
[2]; [6]
  Purity %: 101.5%
[2]; [7]
  Purity %: 99.3%
[2]; [8]
  Purity %: 101.1%
[2]; [9]
  Purity %: 100.5%
[2]; [10]
  Purity %: 99.3%
[2]; [11]
  Purity %: 99.5%
[2]; [12]
  Purity %: 99.7%
[2]; [13]
  Purity %: 100.0%
[2]; [14]
  Purity %: 100.9%
[2]; [15]
  Purity %: 100.6%
[2]; [16]
  Purity %: 99.9%
[2]; [17]
  Purity %: 99.7%
[2]; [18]
  Purity %: 93.4%
[2]; [19]
  Purity %: 81.2%
[2]; condition d): 40° C. and 75% RH
  Stability (in words): strong instability
[2]; conditions a)-c): 5° C., 25° C./60% RH, 30° C./65% RH
  Stability (in words): good stability
[2]; on the basis of the stability results, preserved at 2-8° C.
  validity time period: 12 months
[2]; temperatures higher than 30° C.
  Stability (in words): unstable
[3]; T = 5° C., time 0
  % impurities: 0.36%
[3]; T = 5° C., time 3 (months)
  % impurities: 0.58%
[3]; T = 5° C., time 6 (months)
  % impurities: 0.45%
[3]; T = 5° C., time 9 (months)
  % impurities: 0.31%
[3]; T = 5° C., time 12 (months)
  % impurities: 0.31%
[3]; T = 5° C., time 18 (months)
  % impurities: 0.1%
[3]; T = 5° C., time 24 (months)
  % impurities: 0.21%
[3]; T = 5° C., time 36 (months)
  % impurities: 0.18%
[3]; [4]
  % impurities: 0.36%
[3]; [5]
  % impurities: 0.43%
[3]; [6]
  % impurities: 0.87%
[3]; [7]
  % impurities: 0.24%
[3]; [8]
  % impurities: 0.34%
[3]; [9]
  % impurities: 0.13%
[3]; [10]
  % impurities: 0.28%
[3]; [11]
  % impurities: 0.30%
[3]; [12]
  % impurities: 0.36%
[3]; [13]
  % impurities: 0.44%
[3]; [14]
  % impurities: 0.52%
[3]; [15]
  % impurities: 0.12%
[3]; [16]
  % impurities: 0.76%
[3]; [17]
  % impurities: 0.36%
[3]; [18]
  % impurities: 6.99%
[3]; [19]
  % impurities: 17.31%
[3]; condition d): 40° C./75% RH
  Impurities (in words): unacceptable percentage of impurities
